From US8575136B2, “2-methylene-1α-hydroxy-18,19,21-trinorvitamin D3 analogs and uses thereof” (Wisconsin Alumni Research Foundation, priority 2006, dated 2013)
“Also recorded” adds a separate entry of the source.

Columns and labels:
[1] = molecular target: T1, full-length recombinant rat vitamin D receptor (Rattus norvegicus, UniProt P13053); test: Vitamin D receptor binding, competition with [3H]-1,25-(OH)2-D3; settings: compared to 1α,25-dihydroxyvitamin D3; FIG. 1
T1 construct: Full-length recombinant rat receptor was expressed in E. coli BL21(DE3) Codon Plus RIL cells; histidine tag (C); made in house; host or cells: E. coli BL21(DE3) Codon Plus RIL
T1 sequence (P13053 1-423): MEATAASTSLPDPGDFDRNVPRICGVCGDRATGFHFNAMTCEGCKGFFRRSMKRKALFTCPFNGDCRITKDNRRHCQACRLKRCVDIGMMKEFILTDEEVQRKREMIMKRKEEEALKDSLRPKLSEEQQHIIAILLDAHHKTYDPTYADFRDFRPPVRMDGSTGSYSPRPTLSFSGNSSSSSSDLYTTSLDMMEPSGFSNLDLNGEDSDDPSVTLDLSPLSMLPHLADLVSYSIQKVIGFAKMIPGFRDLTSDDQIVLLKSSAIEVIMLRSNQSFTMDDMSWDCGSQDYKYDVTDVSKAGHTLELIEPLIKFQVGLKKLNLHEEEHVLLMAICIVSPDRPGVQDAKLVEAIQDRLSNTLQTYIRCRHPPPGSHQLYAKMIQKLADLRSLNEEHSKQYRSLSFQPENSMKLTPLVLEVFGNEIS
Procedure: Full-length recombinant rat receptor was expressed in E. coli BL21(DE3) Codon Plus RIL cells and purified to homogeneity using two different column chromatography systems. The first system was a nickel affinity resin that utilizes the C-terminal histidine tag on this protein. The protein that was eluted from this resin was further purified using ion exchange chromatography (S-Sepharose Fast Flow). Aliquots of the purified protein were quick frozen in liquid nitrogen and stored at −80° C. until use. For use in binding assays, the protein was diluted in TEDK50 (50 mM Tris, 1.5 mM EDTA, pH7.4, 5 mM DTT, 150 mM KCl) with 0.1% Chaps detergent. The receptor protein and ligand concentration was optimized such that no more than 20% of the added radiolabeled ligand was bound to the receptor.
Radiolabeled ligand (^3H-1,25(OH)2D3, ˜159 Ci/mmole) was added in ethanol at a final concentration of 1 nM.
Radiolabeled and unlabeled ligands were added to 100 mcl of the diluted protein at a final ethanol concentration of <10%, mixed and incubated overnight on ice to reach binding equilibrium. The following day, 100 mcl of hydroxylapatite slurry (50%) was added to each tube and mixed at 10-minute intervals for 30 minutes. […] Total binding was determined from the tubes containing only radiolabeled ligand.

HL-60 cells = test: HL-60 differentiation (nitro blue tetrazolium reduction); assay type: cell-based, human; settings: compared to 1α,25-dihydroxyvitamin D3; FIG. 4
Procedure: The study drugs were dissolved in ethanol and the concentrations determined using UV spectrophotometry. Serial dilutions were prepared so that a range of drug concentrations could be tested without changing the final concentration of ethanol (<0.2%) present in the cell cultures.
Human promyelocytic leukemia (HL60) cells were grown in RPMI-1640 medium containing 10% fetal bovine serum. The cells were incubated at 37° C. in the presence of 5% CO2.
HL60 cells were plated at 1.2×10^5 cells/ml. Eighteen hours after plating, cells in duplicate were treated with drug. Four days later, the cells were harvested and a nitro blue tetrazolium reduction assay was performed (Collins et al., 1979; J. Exp. Med. 149:969-974). The percentage of differentiated cells was determined by counting a total of 200 cells and recording the number that contained intracellular black-blue formazan deposits. Verification of differentiation to monocytic cells was determined by measuring phagocytic activity (data not shown).

[2] = tested on: 24-hydyroxylase (24Ohase) gene promoter upstream of a luciferase reporter gene in ROS 17/2.8 (bone) cells; test: In vitro transcription assay (luciferase reporter); assay type: cell-based; settings: Ros17/2.8 (bone) cells, compared to 1α,25-dihydroxyvitamin D3; FIG. 5
Procedure: Transcription activity was measured in ROS 17/2.8 (bone) cells that were stably transfected with a 24-hydyroxylase (24Ohase) gene promoter upstream of a luciferase reporter gene (Arbour et al., 1998). Cells were given a range of doses. Sixteen hours after dosing the cells were harvested and luciferase activities were measured using a luminometer. (RLU=relative luciferase units)

[3] = Intestinal calcium transport (everted gut sac method); parameters: species or system Sprague-Dawley rats; settings: in vivo, rats, ip doses; FIG. 3
Procedure: (§1) Male, weanling Sprague-Dawley rats were placed on Diet 11 (0.47% Ca) diet+AEK for one week followed by Diet 11 (0.02% Ca)+AEK for 3 weeks. The rats were then switched to a diet containing 0.47% Ca for one week followed by two weeks on a diet containing 0.02% Ca. Dose administration began during the last week on 0.02% calcium diet. Four consecutive ip doses were given approximately 24 hours apart. Twenty-four hours after the last dose, blood was collected from the severed neck and the concentration of serum calcium determined as a measure of bone calcium mobilization. The first 10 cm of the intestine was also collected for intestinal calcium transport analysis using the everted gut sac method. The everted gut sac assay was carried out as previously described by Martin and Deluca, Am. J. Physiol. 216, 1351 (1969); (DeLuca et al., U.S. Pat. No. 4,188,345), which are incorporated by reference as if fully set forth herein.
Both control and test articles are administered by intraperitoneal injection in 100 microliters for 4-7 consecutive days spaced approximately 24 hours apart.

[4] = Bone calcium mobilization (serum calcium); parameters: species or system Sprague-Dawley rats; settings: in vivo, rats, ip doses; FIG. 2
Procedure: as §1, with “herein. […]” for “herein.”
Twenty-four hours after the final dose, approximately 1 ml of blood is allowed to coagulate at room temperature and then centrifuged at 3000×g for 15 minutes. […] The level of calcium is determined by diluting the serum into 0.1% lanthum chloride and measuring the absorbance on an atomic absorption spectrophotometer (Perkin Elmer Model 3110, Shelton, Conn.).

## C=C1[C@H](O)CC(=C/C=C2\CCC[C@@H]3[C@@H](CCCCC(C)C)CC[C@@H]23)C[C@H]1O [SX-99, 2-methylene-1α-hydroxy-18,19,21-trinorvitamin D3]
[1]
  binding to the recombinant vitamin D receptor: considerably less active; also recorded: relatively high binding
HL-60 cells
  inducing differentiation of HL-60 cells: slightly less active; also recorded: relatively high cell differentiation activity
[2]
  stimulating transcription of a reporter gene: less active
[3]
  intestinal calcium transport activity: potent calcium transport activity; also recorded: significant intestinal calcium transport activity
[4]
  bone calcium mobilization activity: significant bone calcium mobilization activity; also recorded: good ability to mobilize calcium from bone
